Experimental findings from patent US20230286970A1, “NOVEL OXADIAZOLE-BASED SELECTIVE HDAC6 INHIBITORS” (ITALFARMACO S.P.A., priority 2020, published 2023) are described below.

Each structure is given as a SMILES string. A value given as a limit tells only on which side of the number the result lay.

The nature of data set [1]: Stability in rat plasma. The conditions noted are these: after 4 hours, 37° C.
Data set [2] is described as follows: Stability in human plasma. The conditions noted are these: after 4 hours, 37° C.
Method: In order to evaluate the stability to circulating enzymes, test compounds were incubated in human and rat plasma at 37° C. in a thermostated oscillating bath. Each test compound was incubated at μM concentration (50 μM when the samples were analysed by UV/HPLC, 1 or 2 μM when the samples were analysed by LC-MS/MS) for 0, 15, 30 minutes and 1, 2 and 4 hours. The reaction was stopped placing samples on ice bath and adding acidified acetonitrile. After centrifugation (10 minutes at 14000 rpm) an aliquot of the supernatant was diluted with water, filtered with 0.45 μm regenerated cellulose syringe filters and injected in HPLC-UV or in LC-MS/MS. The percentage of the remaining amount at the various incubation times with respect to the initial amount were calculated. The half-life in plasma was also calculated.
Data set [3] in a line: Stability to Phase I metabolism in rat S9 liver fraction. The settings on record: after 90 minutes, 37° C.
Data set [4] in a line: Stability to Phase I metabolism in human S9 liver fraction. The conditions noted are these: after 90 minutes, 37° C.
Method: Test compounds were incubated in rat and human liver S9 fraction at 37° C. up to 90 minutes in order to evaluate their stability to Phase I metabolism by hepatic enzymes. Each test compound was incubated at μM concentration (50 μM when the samples were analysed by UV/HPLC, 1 or 2 μM when the samples were analysed by LC-MS/MS) with S9 fraction (protein content 2 mg/m L) in 100 mM phosphate buffer (pH 7.4), 3.3 mM MgCl2 and 1.3 mM NADPH for 0, 10, 30, 60 and 90 minutes at 37° C. in a thermostated oscillating bath. The reaction was stopped placing samples on ice bath and adding acidified acetonitrile. After centrifugation (10 minutes at 14000 rpm) an aliquot of the supernatant was diluted with water, filtered with 0.45 μm regenerated cellulose syringe filters and injected in HPLC-UV or in LC-MS/MS. The percentage of the remaining amount at the various incubation times with respect to the initial amount were calculated.
In data set [5] the target is recombinant human HDAC1 (Homo sapiens (Human), UniProt Q13547). The data set is described as follows: Enzymatic screening, HDAC1 inhibition (fluorogenic FdL_G substrate). The class given is biochemical. The essentials:
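Recombinant human HDAC1 inhibition was measured fluorometrically using the FLUOR DE LYS-Green (FdL_G) substrate. Compounds at 8 doses (1% DMSO final) in Tris-HCl pH 8 buffer with NaCl, Tween-20 and glycerol were preincubated in triplicate with enzyme and 1 mg/mL BSA, then given substrate. Developer I plus 2 μM TSA was added, and fluorescence read after 25 minutes in the dark.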

The target of data set [6] is recombinant human HDAC6 (Homo sapiens (Human), UniProt Q9UBN7). The data set is described as follows: Enzymatic screening, HDAC6 inhibition (fluorogenic FdL_G substrate). The class given is biochemical. An outline of the steps: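 Enzyme was preincubated with compound (8 doses, triplicate, 1% DMSO) in 25 mM Tris-HCl pH 8, 130 mM NaCl, 0.05% Tween-20, 10% glycerol, with BSA. A FLUOR DE LYS-Green substrate was then added, and fluorescence was read after developer plus 2 μM TSA.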
recombinant human HDAC6, sequence (Q9UBN7 whole entry): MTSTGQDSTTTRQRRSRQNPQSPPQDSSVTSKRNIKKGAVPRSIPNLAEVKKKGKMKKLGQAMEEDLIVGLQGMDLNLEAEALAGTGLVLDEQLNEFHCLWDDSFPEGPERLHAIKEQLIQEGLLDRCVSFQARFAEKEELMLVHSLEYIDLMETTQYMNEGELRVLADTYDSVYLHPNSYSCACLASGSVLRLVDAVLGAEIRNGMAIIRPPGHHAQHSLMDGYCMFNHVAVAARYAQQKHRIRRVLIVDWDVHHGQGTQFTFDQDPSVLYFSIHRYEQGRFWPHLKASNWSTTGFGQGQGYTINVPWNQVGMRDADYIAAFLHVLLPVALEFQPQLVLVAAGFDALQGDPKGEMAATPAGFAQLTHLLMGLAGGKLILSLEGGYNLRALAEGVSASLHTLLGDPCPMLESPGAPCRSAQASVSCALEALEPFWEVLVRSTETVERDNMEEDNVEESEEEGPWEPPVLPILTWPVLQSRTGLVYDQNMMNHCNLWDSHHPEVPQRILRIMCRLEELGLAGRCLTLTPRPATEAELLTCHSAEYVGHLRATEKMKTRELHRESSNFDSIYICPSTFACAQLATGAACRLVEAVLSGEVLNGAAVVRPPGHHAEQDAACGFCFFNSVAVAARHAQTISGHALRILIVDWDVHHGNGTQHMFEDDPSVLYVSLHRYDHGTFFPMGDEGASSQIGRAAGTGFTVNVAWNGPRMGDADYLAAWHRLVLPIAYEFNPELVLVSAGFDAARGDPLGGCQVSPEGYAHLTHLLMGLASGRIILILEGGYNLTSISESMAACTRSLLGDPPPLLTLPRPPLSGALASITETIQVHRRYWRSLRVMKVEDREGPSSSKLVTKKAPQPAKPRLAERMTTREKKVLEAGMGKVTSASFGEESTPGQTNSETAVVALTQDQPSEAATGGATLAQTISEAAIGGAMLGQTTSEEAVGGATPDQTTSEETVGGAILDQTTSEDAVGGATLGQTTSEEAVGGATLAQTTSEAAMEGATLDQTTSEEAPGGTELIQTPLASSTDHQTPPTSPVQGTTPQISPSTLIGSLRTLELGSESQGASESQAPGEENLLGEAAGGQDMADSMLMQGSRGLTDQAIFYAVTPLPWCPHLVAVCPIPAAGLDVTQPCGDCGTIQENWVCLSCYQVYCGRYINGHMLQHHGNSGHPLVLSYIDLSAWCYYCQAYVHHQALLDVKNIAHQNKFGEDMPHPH

recombinant human HDAC1, sequence (Q13547 whole entry): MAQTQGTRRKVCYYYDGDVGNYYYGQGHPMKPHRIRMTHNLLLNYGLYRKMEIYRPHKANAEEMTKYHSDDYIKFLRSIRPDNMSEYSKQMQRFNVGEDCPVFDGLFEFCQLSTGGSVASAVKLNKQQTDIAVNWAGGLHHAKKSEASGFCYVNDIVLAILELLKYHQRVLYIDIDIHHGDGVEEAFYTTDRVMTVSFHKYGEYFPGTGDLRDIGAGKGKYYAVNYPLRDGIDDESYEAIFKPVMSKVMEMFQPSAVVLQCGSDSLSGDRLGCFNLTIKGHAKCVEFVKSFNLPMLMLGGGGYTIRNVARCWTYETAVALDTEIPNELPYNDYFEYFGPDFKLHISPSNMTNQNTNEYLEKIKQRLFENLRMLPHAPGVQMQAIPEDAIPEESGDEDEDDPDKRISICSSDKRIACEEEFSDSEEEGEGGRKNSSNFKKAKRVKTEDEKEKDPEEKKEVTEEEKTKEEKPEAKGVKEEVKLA

Regarding `O=C1NCc2ccc(-c3nnn(Cc4c(F)cc(-c5nnc(C(F)F)o5)cc4F)n3)cc21` [compound 57, 6-(2-(4-(5-(difluoromethyl)-1,3,4-oxadiazol-2-yl)-2,6-difluorobenzyl)-2H-tetrazol-5-yl)isoindolin-1-one], in data set [1], the “residual percentage in RAT PLASMA” value amounted to 68%. Moreover, the “residual percentage in HUMAN PLASMA” value in data set [2] turned out to be 62%. Moreover, the “residual percentage in RAT S9 FRACTION” value in data set [3] is given as 86%. Besides, the “residual percentage in HUMAN S9 FRACTION” value in data set [4] is listed as 70%.
As a reminder, the IC50 is the midpoint of a concentration-inhibition curve. For the molecule `O=C(Nc1cccc(-c2cn(Cc3c(F)cc(-c4nnc(C(F)F)o4)cc3F)nn2)c1)N1CCOCC1` [compound 78, N-(3-(1-(4-(5-(difluoromethyl)-1,3,4-oxadiazol-2-yl)-2,6-difluorobenzyl)-1H-1,2,3-triazol-4-yl)phenyl)morpholine-4-carboxamide], the concentration for half-maximal inhibition (IC50) was above 200000 nM in data set [5] and 32 nM in data set [6]. For the same molecule, the “residual percentage in HUMAN PLASMA” value in data set [2] came to 62%. The “residual percentage in RAT S9 FRACTION” value in data set [3] is recorded as 78%. Moreover, the “residual percentage in HUMAN S9 FRACTION” value in data set [4] was 94%.
`C[C@H](c1ccc(-c2nnc(C(F)F)o2)cc1)n1cc(-c2ccc(N)nc2)nn1` [compound 106, (R)-5-(1-(1-(4-(5-(difluoromethyl)-1,3,4-oxadiazol-2-yl)phenyl)ethyl)-1H-1,2,3-triazol-4-yl)pyridin-2-amine]: the “residual percentage in RAT PLASMA” value in data set [1] was 78%. Also, the “residual percentage in HUMAN PLASMA” value in data set [2] amounted to 86%. Besides, the “residual percentage in RAT S9 FRACTION” value in data set [3] turned out to be 69%. Further, the “residual percentage in HUMAN S9 FRACTION” value in data set [4] amounted to 78%.
For `COc1ncc(NCc2ccc(-c3cn(Cc4ccc(-c5nnc(C(F)F)o5)cc4)nn3)cc2)cc1C(N)=O` [compound 138, 5-((4-(1-(4-(5-(difluoromethyl)-1,3,4-oxadiazol-2-yl)benzyl)-1H-1,2,3-triazol-4-yl)benzyl)amino)-2-methoxynicotinamide], the concentration for half-maximal inhibition (IC50) in data set [5] was above 200000 nM; in data set [6] it was 54 nM. Besides, in data set [2], the “residual percentage in HUMAN PLASMA” value amounted to 92%. Besides, the “residual percentage in RAT S9 FRACTION” value in data set [3] came to 66%. Also, in data set [4], the “residual percentage in HUMAN S9 FRACTION” value came out at 70%.
Turning to `Nc1ncnc2sc(-c3cn(Cc4ccc(-c5nnc(C(F)F)o5)cc4F)nn3)cc12` [compound 416, 6-[1-({4-[5-(difluoromethyl)-1,3,4-oxadiazol-2-yl]-2-fluorophenyl}methyl)-1H-1,2,3-triazol-4-yl]thieno[2,3-d]pyrimidin-4-amine], the concentration for half-maximal inhibition (IC50) in data set [5] amounted to 1e+06 nM; in data set [6], 46 nM.
In the same order, the values of `Fc1cc(-c2nnc(C(F)F)o2)ccc1Cc1nc(-c2ccc(NC3=NCCN3)cc2)no1` [compound 420, N-(4-(5-(4-(5-(difluoromethyl)-1,3,4-oxadiazol-2-yl)-2-fluorobenzyl)-1,2,4-oxadiazol-3-yl)phenyl)-4,5-dihydro-1H-imidazol-2-amine] are above 1e+06 nM and 12 nM.
With `Nc1nccc2cc(-c3nnn(Cc4ccc(-c5nnc(C(F)F)o5)cc4Cl)n3)ccc12` [compound 422, 6-(2-(2-chloro-4-(5-(difluoromethyl)-1,3,4-oxadiazol-2-yl)benzyl)-2H-tetrazol-5-yl)isoquinolin-1-amine], the half-maximal inhibitory concentration (IC50) in data set [5] was determined as 1e+06 nM; in data set [6], 249 nM.
Turning to `Nc1ncc2cc(-c3nnn(Cc4cc(F)c(-c5nnc(C(F)F)o5)cc4F)n3)ccc2n1` [compound 423, 6-(2-(4-(5-(difluoromethyl)-1,3,4-oxadiazol-2-yl)-2,5-difluorobenzyl)-2H-tetrazol-5-yl)quinazolin-2-amine], the results for the IC50 in data set [5] and in data set [6] were 1e+06 nM and 99 nM, respectively.
In the same order, the values of `FC(F)c1nnc(-c2ccc(Cn3nnc(-c4ccc5cnccc5c4)n3)c(Cl)c2)o1` [compound 426, 2-(3-chloro-4-((5-(isoquinolin-6-yl)-2H-tetrazol-2-yl)methyl)phenyl)-5-(difluoromethyl)-1,3,4-oxadiazole] are 1e+06 nM and 345 nM.
